Test results taken from patent US20260199323A1, “LIGAND COMPOUNDS FOR E3 UBIQUITIN LIGASE, PROTEIN DEGRADERS DEVELOPED ON BASIS OF LIGAND COMPOUNDS, AND USES THEREOF” (GLUETACS THERAPEUTICS (SHANGHAI) CO., LTD., priority 2021, published 2026).
One block for each compound: values may come before it.

Key:
CCRF-CEM = test: CCK-8 tumor cell proliferation, CCRF-CEM; format: cell-based, Human; design: IC50 for inhibiting the proliferation of tumor cells, CCRF-CEM: scale not given here; conditions: 96 h
How it was run: (§1)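 Ten-point titrations (10 μM highest, 5-fold steps) were applied to cells 24 h after seeding. After treatment at 37 °C, 5% CO2, cell viability was read with CCK-8 and IC50 values were computed from the resulting inhibition curves.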

Daudi = test: CCK-8 tumor cell proliferation, Daudi; design: species or system Human; conditions: Table 13, designed based on BCR-ABL inhibitors; 96 h
Method: (§2) The tumor cells used herein were cultured in a cell culture medium listed in table 4 at 37° C. in an incubator with 5% CO2. Prior to experimentation, all cells used were correctly identified by STR profiling, and tested negative for mycoplasma through routine screenings.
(§3) IC50 values of the compounds of the present disclosure (including the compounds in Tables 1 and 3, and compounds of examples) were measured using the Meilun Cell Counting Kit-8 kit from Dalian Meilun Biotech Co., Ltd. Assay details are as follows: tumor cells were seeded in a 96-well plate at a density listed in Table 5. After 24 h, 100 μL of the inoculated cells were treated with 0.5 μL of the compounds of the present disclosure (including the compounds in Tables 1 and 3, and compounds of examples) at 10 different successively decreasing concentrations (starting at the highest concentration of 10 μM; 5-fold serial dilutions). After the cells were treated with the compounds of the present disclosure for a period of time, the cell viability detection reagent was added to the culture medium for cell viability assessment according to the instructions provided with the CCK-8 kit. […] The growth inhibition of the compounds of the present disclosure on cells was plotted by Prism Graphpad software, and the IC50 values of the compounds of the present disclosure were calculated therefrom.

Mino = test: CCK-8 tumor cell proliferation, Mino; format: cell-based, Human; conditions: Table 13, designed based on BCR-ABL inhibitors; 72 h
How it was run: as §1

K562 = test: CCK-8 tumor cell proliferation, K562; design: species or system Human; conditions: Table 13, designed based on BCR-ABL inhibitors; 72 h
Method: as §2, §3

Kasumi-1 = test: CCK-8 tumor cell proliferation, Kasumi-1; format: cell-based, Human; conditions: 72 h
How it was run: as §1

CAL-62 = test: CCK-8 tumor cell proliferation, CAL-62; format: cell-based, Human; design: IC50 for inhibiting the proliferation of tumor cells, CAL-62: scale not given here; conditions: Table 13, designed based on BCR-ABL inhibitors; 72 h
How it was run: as §1

SK-OV-3 = test: CCK-8 tumor cell proliferation, SK-OV-3; conditions: Table 14, designed based on CDK4/6 inhibitors
Method: as §3

HGC-27 = test: CCK-8 tumor cell proliferation, HGC-27; format: cell-based, Human; conditions: Table 14, designed based on CDK4/6 inhibitors; 96 h
How it was run: as §1

SU-DHL-6 = test: CCK-8 tumor cell proliferation, SU-DHL-6; format: cell-based, Human; conditions: Table 14, designed based on CDK4/6 inhibitors; 72 h
How it was run: as §1

SR = test: CCK-8 tumor cell proliferation, SR; format: cell-based, Human; conditions: Table 14, designed based on CDK4/6 inhibitors; 72 h
How it was run: as §1

Ramos = test: CCK-8 tumor cell proliferation, Ramos; conditions: Homo sapiens, Table 9, designed based on SHP2 inhibitors, 72 h, read-out: IC50 for inhibiting the proliferation of tumor cells, Ramos
Method: as §2, §3

TMD8 = test: CCK-8 tumor cell proliferation, TMD8; design: species or system Human; conditions: Table 13, designed based on BCR-ABL inhibitors; 72 h
Method: as §2, §3

SNU-182 = test: CCK-8 tumor cell proliferation, SNU-182; design: species or system Human; conditions: Table 6, designed based on STAT3 inhibitors; 96 h
Method: as §2, §3

MM.1S = test: CCK-8 tumor cell proliferation, MM.1S; format: cell-based; conditions: Table 6, designed based on STAT3 inhibitors; 72 h
How it was run: as §1

T47D = test: CCK-8 tumor cell proliferation, T47D; format: cell-based, Human; conditions: Table 6, designed based on STAT3 inhibitors; 96 h
Method: as §2, §3

[1] = Table 13, designed based on BCR-ABL inhibitors
[2] = Table 6, designed based on STAT3 inhibitors

- IC50 for inhibiting the proliferation of tumor cells, CCRF-CEM (CCRF-CEM; [1]): A+
- IC50 for inhibiting the proliferation of tumor cells, Daudi (Daudi): A+
- IC50 for inhibiting the proliferation of tumor cells, Mino (Mino): A+
- IC50 for inhibiting the proliferation of tumor cells, K562 (K562): A+
- IC50 for inhibiting the proliferation of tumor cells, Kasumi-1 (Kasumi-1; [1]): A+
- IC50 for inhibiting the proliferation of tumor cells, CAL-62 (CAL-62): A+
Structure (SMILES): Cc1ccc(C(=O)Nc2ccc(CN3CCN(Cc4ccc5c(c4)CN(C4CCC(=O)NC4=O)C5=O)CC3)c(C(F)(F)F)c2)cc1C#Cc1cnc2cccnn12 (stereo not shown) [GT-03804, N-(4-((4-((2-(2,6-dioxopiperidin-3-yl)-1-oxoisoindolin-5-yl)methyl)piperazin-1-yl)methyl)-3-(trifluoromethyl)phenyl)-3-(imidazo[1,2-b]pyridazin-3-ylethynyl)-4-methylbenzamide]

- IC50 for inhibiting the proliferation of tumor cells, SK-OV-3 (SK-OV-3): A+
- IC50 for inhibiting the proliferation of tumor cells, CCRF-CEM (CCRF-CEM; Table 14, designed based on CDK4/6 inhibitors): A+
- IC50 for inhibiting the proliferation of tumor cells, HGC-27 (HGC-27): A+
- IC50 for inhibiting the proliferation of tumor cells, SU-DHL-6 (SU-DHL-6): A+
- IC50 for inhibiting the proliferation of tumor cells, SR (SR): A+
Structure (SMILES): Cc1nc2c(F)cc(-c3nc(Nc4ccc(N5CCC(N6CCN(Cc7cccc8c7CN(C7CCC(=O)NC7=O)C8=O)CC6)CC5)cn4)ncc3F)cc2n1C(C)C (stereo not shown) [GT-03903, 3-(4-((4-(1-(6-((5-fluoro-4-(4-fluoro-1-isopropyl-2-methyl-1H-benzo[d]imidazol-6-yl)pyrimidin-2-yl)amino)pyridin-3-yl)piperidin-4-yl)piperazin-1-yl)methyl)-1-oxoisoindolin-2-yl)piperidine-2,6-dione]

- IC50 for inhibiting the proliferation of tumor cells, CCRF-CEM (CCRF-CEM; [1]): A+
- IC50 for inhibiting the proliferation of tumor cells, K562 (K562): A+
Structure (SMILES): Cc1ccc(C(=O)Nc2ccc(N3CCN(Cc4ccc5c(c4)CN(C4CCC(=O)NC4=O)C5=O)CC3)c(C(F)(F)F)c2)cc1C#Cc1cnc2cccnn12 (stereo not shown) [GT-03805, N-(4-(4-((2-(2,6-dioxopiperidin-3-yl)-1-oxoisoindolin-5-yl)methyl)piperazin-1-yl)-3-(trifluoromethyl)phenyl)-3-(imidazo[1,2-b]pyridazin-3-ylethynyl)-4-methylbenzamide]

- IC50 for inhibiting the proliferation of tumor cells, Mino (Mino): A+
- IC50 for inhibiting the proliferation of tumor cells, K562 (K562): A+
- IC50 for inhibiting the proliferation of tumor cells, Kasumi-1 (Kasumi-1; [1]): A+
Structure (SMILES): Cc1nc(Nc2ncc(C(=O)Nc3c(C)cccc3Cl)s2)cc(N2CCN(Cc3ccc4c(c3)CN(C3CCC(=O)NC3=O)C4=O)CC2)n1 (stereo not shown) [GT-03215, N-(2-chloro-6-methylphenyl)-2-((6-(4-((2-(2,6-dioxopiperidin-3-yl)-1-oxoisoindolin-5-yl)methyl)piperazin-1-yl)-2-methylpyrimidin-4-yl)amino)thiazole-5-carboxamide]

- IC50 (Ramos): > 10 µM
Structure (SMILES): C[C@@H]1OCC2(CCN(c3cnc(Sc4ccnc(N)c4Cl)c(N)n3)CC2)[C@@H]1N [GT-03335]

- IC50 for inhibiting the proliferation of tumor cells, TMD8 (TMD8): A+
Structure (SMILES): Cc1ccc(NC(=O)c2ccc(CN(C)Cc3ccc4c(c3)CN(C3CCC(=O)NC3=O)C4=O)cc2)cc1Nc1nccc(-c2cccnc2)n1 (stereo not shown) [GT-03990, 4-((((2-(2,6-dioxopiperidin-3-yl)-1-oxoisoindolin-5-yl)methyl)(methyl)amino)methyl)-N-(4-methyl-3-((4-(pyridin-3-yl)pyrimidin-2-yl)amino)phenyl)benzamide]

- IC50 for inhibiting the proliferation of tumor cells, SNU-182 (SNU-182): A+
- IC50 for inhibiting the proliferation of tumor cells, CCRF-CEM (CCRF-CEM; [2]): A+
- IC50 for inhibiting the proliferation of tumor cells, MM.1S (MM.1S): A+
- IC50 for inhibiting the proliferation of tumor cells, Kasumi-1 (Kasumi-1; [2]): A+
- IC50 for inhibiting the proliferation of tumor cells, T47D (T47D): A+
Structure (SMILES): O=C1CCC(N2Cc3cc(CNC(=O)c4cc5c(o4)C(=O)c4ccccc4C5=O)ccc3C2=O)C(=O)N1 (stereo not shown) [GT-03383, N-((2-(2,6-dioxopiperidin-3-yl)-1-oxoisoindolin-5-yl)methyl)-4,9-dioxo-4,9-dihydronaphtho[2,3-b]furan-2-carboxamide]

- IC50 (Ramos): > 10 µM
Structure (SMILES): CC1(N)CCN(c2cnc(-c3cccc(Cl)c3Cl)c(N)n2)CC1 [GT-03334]

- IC50 (Ramos): > 10 µM
Structure (SMILES): CC1(N)CCN(c2cnc3c(-c4cccc(Cl)c4Cl)n[nH]c3n2)CC1 [GT-03336]
